# According to patent US7868188B2, “5-heteroaryl thiazoles and their use as PI3K inhibitors” (AstraZeneca AB, priority 2004, dated 2011):
# Structures can show the parent of a compound that is named as a salt.
# Experiments:
# p110α Type Ia human PI3K = target: T1, p110α Type Ia human PI3K (Homo sapiens, UniProt P42336); assay: Test (a) In Vitro PI3K Enzyme Assay (AlphaScreen); type: biochemical; conditions: read-out: IC50 versus p110α PI3K
# T1 construct: full length DNA of each of the p110α, p110β and p110δ Type Ia human PI3K p110 isoforms; 6-His; made in house; host or cells: baculovirus expression system (Sf9 is named only for PI3Kγ)
# From the text: The assay used AlphaScreen technology (Gray et al., Analytical Biochemistry, 2003, 313: 234-245) to determine the ability of test compounds to inhibit phosphorylation by recombinant Type I PI3K enzymes of the lipid PI(4,5)P2.
# DNA fragments encoding human PI3K catalytic and regulatory subunits were isolated from cDNA libraries using standard molecular biology and PCR cloning techniques. The selected DNA fragments were used to generate baculovirus expression vectors. In particular, full length DNA of each of the p110α, p110β and p110δ Type Ia human PI3K p110 isoforms (EMBL Accession Nos. HSU79143, S67334, Y10055 for p110α, p110β and p110δ respectively) were sub-cloned into a pDEST10 vector (Invitrogen Limited, Fountain Drive, Paisley, UK). The vector is a Gateway-adapted version of Fastbac1 containing a 6-His epitope tag. A truncated form of Type Ib human PI3K p110γ isoform corresponding to amino acid residues 144-1102 (EMBL Accession No. X8336A) and the full length human p85α regulatory subunit (EMBL Accession No. HSP13KIN) were also sub-cloned into pFastBac1 vector containing a 6-His epitope tag. The Type Ia p110 constructs were co-expressed with the p85α regulatory subunit. Following expression in the baculovirus system using standard baculovirus expression techniques, expressed proteins were purified using the His epitope tag using standard purification techniques.
# DNA corresponding to amino acids 263 to 380 of human general receptor for phosphoinositides (Grp1) PH domain was isolated from a cDNA library using standard molecular biology and PCR cloning techniques. The resultant DNA fragment was sub-cloned into a pGEX 4T1 E. coli expression vector containing a GST epitope tag (Amersham Pharmacia Biotech, Rainham, Essex, UK) as described by Gray et al., Analytical Biochemistry, 2003, 313: 234-245). The GST-tagged Grp1 PH domain was expressed and purified using standard techniques.
# Test compounds were prepared as […] stock solutions in DMSO and diluted into water as required to give a range of final assay concentrations. Aliquots (2 μl) of each compound dilution were placed into a well of a Greiner 384-well low volume (LV) white polystyrene plate (Greiner Bio-one, Brunel Way, Stonehouse, Gloucestershire, UK Catalogue No. 784075). […]
# Biotinylated-DiC8-PI(3,4,5)P3 (50 nM; Cell Signals Inc., Catalogue No. 107), recombinant purified GST-Grp1 PH protein (2.5 nM) and AlphaScreen Anti-GST donor and acceptor beads (100 ng; Packard Bioscience Limited, Station Road, Pangbourne, Berkshire, UK, Catalogue No. 6760603M) were added and the assay plates were left for about 5 to 20 hours at room temperature in the dark. The resultant signals arising from laser light excitation at 680 nm were read using a Packard AlphaQuest instrument. […]
# [1] = test system: phosphorylation of Serine 473 in Akt (MDA-MB-468 cells); assay: Test (c) In Vitro phospho-Ser473 Akt Assay; type: cell-based; conditions: Homo sapiens, read-out: IC50 versus Serine 473 in Akt
# Method: This assay determines the ability of test compounds to inhibit phosphorylation of Serine 473 in Akt as assessed using Acumen Explorer technology (Acumen Bioscience Limited), a plate reader that can be used to rapidly quantitate features of images generated by laser-scanning.
# A MDA-MB-468 human breast adenocarcinoma cell line (LGC Promochem, Teddington, Middlesex, UK, Catalogue No. HTB-132) was routinely maintained at 37° C. with 5% CO2 up to a confluency of 70-90% in DMEM containing 10% heat-inactivated FCS and 1% L-glutamine.
# For the assay, the cells were detached from the culture flask using ‘Accutase’ (Innovative Cell Technologies Inc., San Diego, Calif., USA; Catalogue No. AT104) using standard tissue culture methods and resuspended in media to give 1.7×10^5 cells per ml. Aliquots (90 μl) were seeded into each of the inner 60 wells of a black Packard 96 well plate (PerkinElmer, Boston, Mass., USA; Catalogue No. 6005182) to give a density of ˜15000 cells per well. Aliquots (90 μl) of culture media were placed in the outer wells to prevent edge effects. The cells were incubated overnight at 37° C. with 5% CO2 to allow them to adhere.
# On day 2, the cells were treated with test compounds and incubated for 2 hours at 37° C. with 5% CO2. Test compounds were prepared as 10 mM stock solutions in DMSO and serially diluted as required with growth media to give a range of concentrations that were 10-fold the required final test concentrations. Aliquots (10 μl) of each compound dilution were placed in a well (in triplicate) to give the final required concentrations. As a minimum response control, each plate contained wells having a final concentration of 100 μM LY294002 (Calbiochem, Beeston, UK, Catalogue No. 440202). As a maximum response control, wells contained 1% DMSO instead of test compound. Following incubation, the contents of the plates were […] by treatment with a 1.6% aqueous formaldehyde solution (Sigma, Poole, Dorset, UK, Catalogue No. F1635) at room temperature for 1 hour.
# All subsequent aspiration and wash steps were carried out using a Tecan 96 well late washer (aspiration speed 10 mm/sec). The fixing solution was removed and the contents of the plates were washed with phosphate-buffered saline (PBS; 50 μl; Gibco, Catalogue No. 10010015). The contents of the plates were treated for 10 minutes at room temperature with an aliquot (50 μl) of a cell permeabilisation buffer consisting of a mixture of PBS and 0.5% Tween-20. […] An aliquot of PBS (50 μl) was added to each well and the plates were sealed with black plate sealers and the fluorescence signal was detected and analysed.
# Fluorescence dose response data obtained with each compound were analysed and the degree of inhibition of Serine 473 in Akt was expressed as an IC50 value.
# T1 sequence (P42336 whole entry, canonical isoform): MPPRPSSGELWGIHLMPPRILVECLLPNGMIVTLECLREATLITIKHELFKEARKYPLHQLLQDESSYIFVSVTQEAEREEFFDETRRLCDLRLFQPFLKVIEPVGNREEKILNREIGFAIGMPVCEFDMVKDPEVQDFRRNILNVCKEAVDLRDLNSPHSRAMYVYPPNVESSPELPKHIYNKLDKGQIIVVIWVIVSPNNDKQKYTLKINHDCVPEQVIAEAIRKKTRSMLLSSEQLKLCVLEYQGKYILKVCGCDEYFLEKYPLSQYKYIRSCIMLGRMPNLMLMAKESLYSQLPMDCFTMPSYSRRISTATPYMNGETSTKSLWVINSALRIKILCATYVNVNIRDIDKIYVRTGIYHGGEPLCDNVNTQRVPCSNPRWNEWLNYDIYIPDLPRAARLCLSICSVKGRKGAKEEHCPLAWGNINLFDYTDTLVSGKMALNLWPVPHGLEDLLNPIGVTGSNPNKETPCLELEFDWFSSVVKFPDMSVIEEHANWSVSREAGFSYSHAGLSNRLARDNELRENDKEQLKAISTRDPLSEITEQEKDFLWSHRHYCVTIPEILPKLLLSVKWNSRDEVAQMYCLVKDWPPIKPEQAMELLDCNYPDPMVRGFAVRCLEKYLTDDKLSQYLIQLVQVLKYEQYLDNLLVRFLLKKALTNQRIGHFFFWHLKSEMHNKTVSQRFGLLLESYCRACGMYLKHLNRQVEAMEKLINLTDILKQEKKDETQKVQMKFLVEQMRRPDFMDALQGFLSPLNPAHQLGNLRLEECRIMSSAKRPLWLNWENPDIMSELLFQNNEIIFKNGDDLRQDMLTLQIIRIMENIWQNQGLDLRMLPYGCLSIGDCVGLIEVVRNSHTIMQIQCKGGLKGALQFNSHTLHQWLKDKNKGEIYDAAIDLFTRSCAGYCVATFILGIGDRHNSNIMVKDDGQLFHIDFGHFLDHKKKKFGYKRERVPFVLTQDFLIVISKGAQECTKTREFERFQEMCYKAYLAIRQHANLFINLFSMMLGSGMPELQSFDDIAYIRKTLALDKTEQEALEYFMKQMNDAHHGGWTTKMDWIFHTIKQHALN
# T1 sequence (P27986 whole entry partner, canonical isoform): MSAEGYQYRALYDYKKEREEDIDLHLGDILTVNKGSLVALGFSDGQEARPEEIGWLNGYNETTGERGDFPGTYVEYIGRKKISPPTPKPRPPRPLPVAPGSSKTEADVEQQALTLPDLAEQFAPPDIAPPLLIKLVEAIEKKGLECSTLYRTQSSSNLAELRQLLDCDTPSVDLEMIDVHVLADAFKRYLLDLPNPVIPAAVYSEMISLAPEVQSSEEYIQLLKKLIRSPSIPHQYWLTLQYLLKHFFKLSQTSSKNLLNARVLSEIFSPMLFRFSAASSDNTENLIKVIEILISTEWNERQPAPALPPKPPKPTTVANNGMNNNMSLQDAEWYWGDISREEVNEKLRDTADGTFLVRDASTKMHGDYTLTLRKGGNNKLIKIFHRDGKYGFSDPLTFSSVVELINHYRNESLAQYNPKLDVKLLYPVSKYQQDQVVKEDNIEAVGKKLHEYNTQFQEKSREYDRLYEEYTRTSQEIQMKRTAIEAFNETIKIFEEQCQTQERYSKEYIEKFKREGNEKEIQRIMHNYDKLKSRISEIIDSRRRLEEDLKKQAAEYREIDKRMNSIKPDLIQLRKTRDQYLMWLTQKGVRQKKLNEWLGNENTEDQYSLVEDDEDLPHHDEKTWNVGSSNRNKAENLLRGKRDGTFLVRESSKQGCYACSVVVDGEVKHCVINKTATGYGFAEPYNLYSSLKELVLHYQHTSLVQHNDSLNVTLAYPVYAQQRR
smiles,measurement,setting,value
"CC(=O)Nc1nc(C)c(-c2cnc(Cl)c(NS(=O)(=O)c3ccccc3)c2)s1 [Example 13, N-{5-[6-Chloro-5-(phenylsulfonylamino)pyridin-3-yl]-4-methyl-1,3-thiazol-2-yl}acetamide trifluoroacetate]",IC50,p110α Type Ia human PI3K,~0.01 µM
same,IC50,[1],~0.02 µM
